Tested on: DC
Test: LPS induced IL-6 secretion from single dendritic cells in droplets
Format: cell-based, mouse
Settings: single DC co-encapsulated with LPS; versus droplets with no LPS
Excerpt: FIG. 16A is a schematic illustration of […] carried out in a microdroplet.
The activation and monitoring of live single cells for secretion and cell surface markers have been measured simultaneously. In particular, droplet based technology can be applied to simultaneously stimulate mouse DC maturation with an immunological adjuvant, lipopolysaccharide (LPS), and to monitor two phenotypic markers of DCs. The maturation phenotype of the live DC was followed by measuring CD86 expression and IL-6 secretion. DC were co-encapsulated with LPS and bioassay reagents (microsphere sensors and antibodies). This method made it possible to distinguish the responses of individual cells to LPS stimulation in the confined volume of droplets. In addition to CD86, LPS induced IL-6 secretion could be monitored from the same encapsulated single DCs (FIG. 16B). The signal was detected in droplets after 10 min in the array.

lipopolysaccharide [LPS]
IL-6 levels in droplets: significantly higher
